In the NIST ThermoML archive (doi:10.1016/j.fluid.2008.07.001):
Numbers after ± are expanded uncertainties.

Columns and labels:
[1] = 298.15 K; 101.33 kPa; Liquid
[2] = refractive index (Na D-line) (dimensionless); conditions: 298.15 K; 101.33 kPa; Liquid; Standard Abbe refractometry

SMILES | mass density [1] [kg/m3] | refractive index [2]
CC(C)CO [2-methyl-1-propanol] | 797.83 ± 0.48 | 1.3938 ± 0.0005
CC(=O)OCC(C)C [2-methylpropyl ethanoate] | 866.12 ± 1.4 | 1.3876 ± 0.0006
CC(=O)O [acetic acid] | 1043.9 ± 0.11 | 1.3696 ± 0.0005
O [water] | – | 1.3325 ± 0.0005
